# According to patent US4983600A, “Heterocyclic compounds useful as 5-HT3 antagonists” (John Wyeth & Brother Limited, priority 1987, dated 1991):
# Key:
# [1] = potential anxiolytic activity: mouse exploratory activity in a two-compartment light/dark box; format: in vivo; details: mice, Student's unpaired t-test vs vehicle, *P<0.05, **P<0.01, ***P<0.001
# Description: The compounds of the invention are tested for potential anxiolytic activity by a test procedure measuring mouse exploratory activity in a two-compartment light/dark box based upon the procedure of B Costall et al, Neuropharmacology, 1987, 26, 195-200 and J N Crawley et al, Pharmac. Biochem. Behav., 1980, 13, 167-170. The test involves observing groups of mice placed in an open topped box, one third of which is painted black and illuminated under a dim red light and partitioned from the remainder of the box which is painted white and brightly illuminated. Access between the two sections is via an opening in the centre of the partition. The groups of mice are treated with vehicle or test compound and various behavioural parameters of the animals are measured including the number of exploratory rearings made by the mice in each section and the number of times the mice cross lines marked on the floor of each section. For each treatment group the mean number of line crossings and rears in each section of the box are calculated. Differences between drug-treated groups and vehicle-treated controls are compared using Student's unpaired t-test. […] Test compounds are considered to be active if they induce a similar set of changes and, in particular, if they produce a significant (p<0.05) increase in rearing activity in the light section of the box.
# 5-HT3 receptors = target: T1, 5-HT3 receptors (Oryctolagus cuniculus, UniProt A0A5F9C9J3); experiment: 5-HT3 antagonistic activity in the isolated right atrium of the rabbit heart; format: cell-based; details: 10^-5 M 5-HT, read-out: -log IC50 (chronotropic response to 10^-5 M 5-HT) (converted)
# T1 construct: isolated right atrium of the rabbit heart; from tissue; host or cells: rabbit heart, isolated right atrium (sympathetic nerve terminals)
# T1 sequence (A0A5F9C9J3 1-494): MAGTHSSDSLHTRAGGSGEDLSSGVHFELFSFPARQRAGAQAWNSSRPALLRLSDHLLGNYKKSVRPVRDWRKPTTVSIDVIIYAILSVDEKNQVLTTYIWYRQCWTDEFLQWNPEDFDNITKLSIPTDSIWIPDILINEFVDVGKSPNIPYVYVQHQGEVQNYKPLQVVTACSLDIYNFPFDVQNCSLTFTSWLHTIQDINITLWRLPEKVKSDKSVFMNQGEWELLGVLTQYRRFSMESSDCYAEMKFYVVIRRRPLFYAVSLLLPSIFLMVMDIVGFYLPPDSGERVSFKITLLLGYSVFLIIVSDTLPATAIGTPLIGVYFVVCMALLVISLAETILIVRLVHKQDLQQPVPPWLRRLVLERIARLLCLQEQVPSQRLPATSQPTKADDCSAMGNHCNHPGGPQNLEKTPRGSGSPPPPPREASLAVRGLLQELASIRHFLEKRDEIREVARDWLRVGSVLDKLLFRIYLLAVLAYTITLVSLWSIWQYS
# Description: In particular they antagonise specific 5-hydroxytryptamine (5-HT) receptors in warm blooded animals. […] 5-HT3 -antagonists are also termed "antagonists of "neuronal" 5-hydroxytryptamine receptors" and "serotonin (5-hydroxytryptamine) M-receptor antagonists". Such compounds have been described as being useful inter alia in the treatment of migraine, emesis, anxiety, gastrointestinal disorders and as anti-psychotics.
# The compounds of the invention are tested for 5-HT3 antagonistic activity in the isolated right atrium of the rabbit heart based upon the method of Fozard J. R., Naunyn-Schmiedeberg's Arch. Pharmacol., 1984, 326, 36-44. This procedure relies upon the ability of 5-HT to stimulate 5-HT3 receptors present on sympathetic nerve terminals in the heart, causing release of noradrenaline which evokes an increase in the spontaneous rate of beating. The antagonist potency is expressed as -log IC50 (where IC50 is the chronotropic response to 10^-5 M 5-HT by 50%)
# [2] = 2.0 mg/kg s.c., standard anxiolytic
SMILES,"% Change Relative to Controls: Line Crossings [1, 2]","% Change Relative to Controls: Rears [1, 2]",IC50 (5-HT3 receptors),% Change Relative to Controls: Line Crossings ([1]; 0.1 mg/kg s.c.),% Change Relative to Controls: Rears ([1]; 0.1 mg/kg s.c.),% Change Relative to Controls: Line Crossings ([1]; 1.0 mg/kg s.c.),% Change Relative to Controls: Rears ([1]; 1.0 mg/kg s.c.)
"CNC1=Nc2ccc(Cl)cc2C(c2ccccc2)=[N+]([O-])C1 [Chlordiazepoxide, reference compound]",+42%,+77%,–,–,–,–,–
O=C(Nc1cc(Cl)cc(Cl)c1)NC1CN2CCC1CC2 (stereo not shown) [Example 1],–,–,5.01 nM,+40%,+85%,–,–
"COc1ccccc1C(=O)NC(=O)NC1CN2CCC1CC2 (stereo not shown) [Example 5, N-[[[1-Azabicyclo[2.2.2]octan-3-yl]amino]carbonyl]-2-methoxybenzamide]",–,–,2.14 nM,+20%,+73%,–,–
"O=C(Nc1cc(Cl)cc(Cl)c1)N[C@@H]1CN2CCC1CC2 [Example 12, (S)-(-)-N-(1-Azabicyclo[2.2.2]octan-3-yl)-N'-(3,5-dichlorophenyl)urea]",–,–,0.501 nM,–,–,+42%,+75%
"O=C(Nc1cc(Cl)cc(Cl)c1)N[C@H]1CN2CCC1CC2 [Example 13, (R)-(+)-N-(1-Azabicyclo[2.2.2]octan-3-yl)-N'-(3,5-dichlorophenyl)urea]",–,–,–,+69%,+90%,–,–
